# Results reported in patent publication US8207172B2 (Bayer Intellectual Property GmbH, priority 2004, dated 2012).
# Counter-ions that a name gives are not always drawn.
# Columns and labels:
# [1] = test system: BT474 (human breast carcinoma); experiment: In vitro tumor cell proliferation assay (Cell Titer-Glo luminescent cell viability), BT474; format: cell-based; conditions: BT-474, 72 h, BT474 cells, 72 hours of drug exposure, ATP luminescence readout, read-out: IC50, anti-proliferative activity (inhibition of cell proliferation)
# Source text: (§1) In vitro Tumor Cell Proliferation Assay
# (§2) The tumor cell proliferation assay used to test the compounds of the present invention involves a readout called Cell Titer-Glow® Luminescent Cell Viability Assay developed by Promega® (Cunningham, B A “A Growing Issue: Cell Proliferation Assays, Modern kits ease quantification of cell growth” The Scientist 2001, 15(13), 26, and Crouch, S P et al., “The use of ATP bioluminescence as a measure of cell proliferation and cytotoxicity” Journal of Immunological Methods 1993, 160, 81-88), that measures inhibition of cell proliferation. Generation of a luminescent signal corresponds to the amount of ATP present, which is directly proportional to the number of metabolically active (proliferating) cells.
# (§3) A431cells (human epidermoid carcinoma, ATCC […]) and BT474 (human breast carcinoma, ATCC […]) were plated at a density of 2.5×10^3 cells/well in 96 well black-clear bottom tissue culture plates in RPMI media with 10% Fetal Bovine Serum and incubated at 37° C. Twenty-four hours later, test compounds are added at a final concentration range from as high […] to as low 64 pM depend on the activities of the tested compounds in serial dilutions at a final DMSO concentration of 0.1%. Cells were incubated for 72 hours at 37° C. in complete growth media after addition of the test compound. After 72 hours of drug exposure, the plates were equilibrated to room temperature for approximately 30 min. Then, using a Promega Cell Titer Glo Luminescent® assay kit, lysis buffer containing 100 microliters of the enzyme luciferase and its substrate, luciferin mixture, was added to each well. The plates were mixed for 2 min on orbital shaker to ensure cell lysis and incubated for 10 min at room temperature to stabilize luminescence signal. The samples were read on VICTOR 2 using Luminescence protocol, and analyzed with Analyze5 software to generate IC50 values.
# [2] = test system: A431 cells (human epidermoid carcinoma); experiment: In vitro tumor cell proliferation assay (Cell Titer-Glo luminescent cell viability), A431; format: cell-based; conditions: A-431, 72 h, 72 hours of drug exposure, ATP luminescence readout, read-out: IC50, anti-proliferative activity (inhibition of cell proliferation)
# Source text: as §1, §2, §3
Compound,IC50 [1] [µM],IC50 [2] [µM]
"CS(=O)(=O)OCCn1ncc2c1CCc1c-2sc2ncnc(Nc3ccc4c(cnn4Cc4cccc(F)c4)c3)c12 [Example 290, 2-(6-{[1-(3-fluorobenzyl)-1H-indazol-5-yl]amino}-4,5-dihydro-3H-pyrimido[5′,4′:4,5]thieno[2,3-e]indazol-3-yl)ethyl methanesulfonate]",≤ 1,≤ 5
"Fc1ccc(Nc2ncnc3sc4c(c23)CCc2nn(CCN3CCN(Cc5ccncc5)CC3)cc2-4)cc1Cl [Example 14, N-(3-chloro-4-fluorophenyl)-2-{2-[4-(pyridin-4-ylmethyl)piperazin-1-yl]ethyl}-4,5-dihydro-2H-pyrimido[5′,4′:4,5]thieno[2,3-e]indazol-6-amine]",≤ 5,≤ 5
"NS(=O)(=O)OCCn1cc2c(n1)CCc1c-2sc2ncnc(Nc3ccc(OCc4cccc(F)c4)c(Cl)c3)c12 [Example 311, 2-[6-({3-chloro-4-[(3-fluorobenzyl)oxy]phenyl}amino)-4,5-dihydro-2H-pyrimido[5′,4′:4,5]thieno[2,3-e]indazol-2-yl]ethyl sulfamate]",≤ 1,≤ 50
"Fc1cccc(COc2ccc(Nc3ncnc4sc5c(c34)CCc3nn(CCn4ccnc4)cc3-5)cc2Cl)c1 [Example 77, N-{3-chloro-4-[(3-fluorobenzyl)oxy]phenyl}-2-[2-(1H-imidazol-1-yl)ethyl]-4,5-dihydro-2H-pyrimido[5′,4′:4,5]thieno[2,3-e]indazol-6-amine]",≤ 1,≤ 5
"O=C(Cn1ncc2c1CCc1c-2sc2ncnc(Nc3ccc(OCc4cccc(F)c4)c(Cl)c3)c12)N1CCNCC1 [Example 201, N-{3-chloro-4-[(3-fluorobenzyl)oxy]phenyl}-3-(2-oxo-2-piperazin-1-ylethyl)-4,5-dihydro-3H-pyrimido[5′,4′:4,5]thieno[2,3-e]indazol-6-amine]",≤ 1,≤ 5
"CN(C)[C@H]1CCN(CCn2cc3c(n2)CCc2c-3sc3ncnc(Nc4ccc(OCc5cccc(F)c5)c(Cl)c4)c23)C1 [Example 58, N-{3-chloro-4-[(3-fluorobenzyl)oxy]phenyl}-2-{2-[(3S)-3-(dimethylamino)pyrrolidin 1-yl]ethyl}-4,5-dihydro-2H-pyrimido[5′,4′:4,5]thieno[2,3-e]indazol-6-amine]",≤ 1,≤ 5
"CC(C)c1nccn1CCn1cc2c(n1)CCc1c-2sc2ncnc(Nc3ccc(F)c(Cl)c3)c12 [Example 42, N-(3-chloro-4-fluorophenyl)-2-[2-(2-isopropyl-1H-imidazol-1-yl)ethyl]-4,5-dihydro-2H-pyrimido[5′,4′:4,5]thieno[2,3-e]indazol-6-amine]",≤ 5,≤ 5
"C[N+]1(C)CCC(n2cc3c(n2)CCc2c-3sc3ncnc(Nc4ccc(OCc5cccc(F)c5)c(Cl)c4)c23)CC1 [Example 225, 4-[6-({3-chloro-4-[(3-fluorobenzyl)oxy]phenyl}amino)-4,5-dihydro-2H-pyrimido[5′,4′:4,5]thieno[2,3-e]indazol-2-yl]-1,1-dimethylpiperidinium trifluoroacetate]",≤ 5,≤ 50
"NCC(=O)OCCn1cc2c(n1)CCc1c-2sc2ncnc(Nc3ccc(OCc4cccc(F)c4)c(Cl)c3)c12 [Example 315, 2-[6-({3-chloro-4-[(3-fluorobenzyl)oxy]phenyl}amino)-4,5-dihydro-2H-pyrimido[5′,4′:4,5]thieno[2,3-e]indazol-2-yl]ethyl glycinate]",≤ 1,≤ 5
"COCCN(C)CCn1cc2c(n1)CCc1c-2sc2ncnc(Nc3ccc(F)c(Cl)c3)c12 [Example 10, N-(3-chloro-4-fluorophenyl)-2-{2-[(2-methoxyethyl)(methyl)amino]ethyl}-4,5-dihydro-2H-pyrimido[5′,4′:4,5]thieno[2,3-e]indazol-6-amine]",≤ 5,≤ 5
"O=C(Cn1cc2c(n1)CCc1c-2sc2ncnc(Nc3ccc(OCc4cccc(F)c4)c(Cl)c3)c12)N(CCO)CCO [Example 187, 2-[6-({3-chloro-4-[(3-fluorobenzyl)oxy]phenyl}amino)-4,5-dihydro-2H-pyrimido[5′,4′:4,5]thieno[2,3-e]indazol-2-yl]-N,N-bis(2-hydroxyethyl)acetamide]",≤ 1,≤ 50
"OCCNCCn1ncc2c1CCc1c-2sc2ncnc(Nc3ccc(F)c(Cl)c3)c12 [Example 96, 2-[(2-{6-[(3-chloro-4-fluorophenyl)amino]-4,5-dihydro-3H-pyrimido[5′,4′:4,5]thieno[2,3-e]indazol-3-yl}ethyl)amino]ethanol]",≤ 1,≤ 5
"CN1CCN(CCn2ncc3c2CCc2c-3sc3ncnc(Nc4ccc(OCc5ccccn5)c(Cl)c4)c23)CC1 [Example 112, N-[3-chloro-4-(pyridin-2-ylmethoxy)phenyl]-3-[2-(4-methylpiperazin-1-yl)ethyl]-4,5-dihydro-3H-pyrimido[5′,4′:4,5]thieno[2,3-e]indazol-6-amine]",≤ 1,≤ 5
"Fc1cccc(COc2ccc(Nc3ncnc4sc5c(c34)CCc3nn(CCN4CCC(N6CCCCC6)CC4)cc3-5)cc2Cl)c1 [Example 70, 2-[2-(1,4′-bipiperidin-1′-yl)ethyl]-N-{3-chloro-4-[(3-fluorobenzyl)oxy]phenyl}-4,5-dihydro-2H-pyrimido[5′,4′:4,5]thieno[2,3-e]indazol-6-amine]",≤ 1,≤ 5
"O=C(Cn1cc2c(n1)CCc1c-2sc2ncnc(Nc3ccc(OCc4cccc(F)c4)c(Cl)c3)c12)N1CCOCC1 [Example 179, N-{3-chloro-4-[(3-fluorobenzyl)oxy]phenyl}-2-(2-morpholin-4-yl-2-oxoethyl)-4,5-dihydro-2H-pyrimido[5′,4′:4,5]thieno[2,3-e]indazol-6-amine]",≤ 1,≤ 5
"Fc1ccc(Nc2ncnc3sc4c(c23)CCc2nn(CCNCCN3CCOCC3)cc2-4)cc1Cl [Example 7, N-(3-chloro-4-fluorophenyl)-2-{2-[(2-morpholin-4-ylethyl)amino]ethyl]-4,5-dihydro-2H-pyrimido[5′,4′:4,5]thieno[2,3-e]indazol-6-amine]",≤ 1,≤ 5
"Fc1cccc(COc2ccc(Nc3ncnc4sc5c(c34)CCc3n[nH]cc3-5)cc2Cl)c1 [Example 74, N-{3-chloro-4-[(3-fluorobenzyl)oxy]phenyl}-4,5-dihydro-2H-pyrimido[5′,4′:4,5]thieno[2,3-e]indazol-6-amine]",≤ 1,≤ 5
"CN(C)CCNCCn1cc2c(n1)CCc1c-2sc2ncnc(Nc3ccc(F)c(Cl)c3)c12 [Example 16, N′-(2-{6-[(3-chloro-4-fluorophenyl)amino]-4,5-dihydro-2H-pyrimido[5′,4′:4,5]thieno[2,3-e]indazol-2-yl}ethyl)-N,N-dimethylethane-1,2-diamine]",≤ 5,≤ 5
"Cc1cccc(COc2ccc(Nc3ncnc4sc5c(c34)CCc3nn(CCN4CCN(C)CC4)cc3-5)cc2Cl)n1 [Example 117, N-{3-chloro-4-[(6-methylpyridin-2-yl)methoxy]phenyl}-2-[2-(4-methylpiperazin-1-yl)ethyl]-4,5-dihydro-2H-pyrimido[5′,4′:4,5]thieno[2,3-e]indazol 6-amine]",≤ 5,≤ 50
"OCCNCCn1cc2c(n1)CCc1c-2sc2ncnc(Nc3ccc(F)c(Cl)c3)c12 [Example 19, 2-[(2-{6-[(3-chloro-4-fluorophenyl)amino]-4,5-dihydro-2H-pyrimido[5′,4′:4,5]thieno[2,3-e]indazol-2-yl}ethyl)amino]ethanol]",≤ 5,≤ 5
"CN1CCN(CCn2ncc3c2CCc2c-3sc3ncnc(Nc4ccc(F)c(Cl)c4)c23)CC1 [Example 90, N-(3-chloro-4-fluorophenyl)-3-[2-(4-methylpiperazin-1-yl)ethyl]-4,5-dihydro-3H-pyrimido[5′,4′:4,5]thieno[2,3-e]indazol-6-amine trifluoroacetate]",≤ 5,≤ 5
"COC[C@H]1CCCN1CCn1cc2c(n1)CCc1c-2sc2ncnc(Nc3ccc(F)c(Cl)c3)c12 [Example 28, N-(3-chloro-4-fluorophenyl)-2-{2-[(2R)-2-(methoxymethyl)pyrrolidin-1-yl]ethyl}-4,5-dihydro-2H-pyrimido[5′,4′:4,5]thieno[2,3-e]indazol-6-amine]",≤ 5,≤ 5
"OCCN(CCO)CCn1ncc2c1CCc1c-2sc2ncnc(Nc3ccc(F)c(Cl)c3)c12 [Example 91, 2,2′-[(2-{6-[(3-chloro-4-fluorophenyl)amino]-4,5-dihydro-3H-pyrimido[5′,4′:4,5]thieno[2,3-e]indazol-3-yl}ethyl)imino]diethanol trifluoroacetate (salt)]",≤ 5,≤ 5
